Measurements taken from patent US7365042B2, “Pyridine-3-sulfonyl compounds as pesticidal agents” (BASF Aktiengesellschaft, priority 2002, dated 2008).
“And” between values parts separate entries of the source, which are not always exact repeats. Identical values can stand only once.

Tests used:
Assay type in all cases: in vivo
[1] = system: Cotton aphid (Aphis gossypii); test: Cotton aphid leaf dip test (CA H43); settings: mixed life stages
Procedure: (§1) Test compounds were prepared and formulated into aqueous formulations using acetone. The formulations were tested using the following target species: • SAW-L52-PRODER (southern armyworm), 2ND-3RD Instar Larvae, Leaf Dip, 4 days • CA-H43-APHIGO (cotton aphid), Mixed Life Stages, Leaf Dip • BA-H40-APHIFA (black bean aphid), Mixed Life Stages, Plant Drench • GPA-H52-MYZUPE (green peach aphid), Mixed Life Stages, Leaf Dip • SLWF-H45-BEMIAR (silver leaf whitefly), Adult, Leaf Dip • TSMR-A42-TETRUR (two-spotted spider mite, P-resistant origin), Mixed Life Soges, Leaf Dip
Test Procedures for Cotton aphid (Aphis gossypii) (CA—leaf dip):
Selected cotton plants to the cotyledon stage (one plant per pot). Placed one heavily infested cotyledon pair, hosting approximately 100 laboratory-reared aphids, an top of each test plant. Allowed the aphids to transfer to the test plants (overnight). Removed the drying cotyledons from the test plants prior to dipping.
Prepared test solutions as needed in 50:50 acetone: water and 100 ppm Kinetic® surfactant. Dipped the infested leaves of the intact plant into the test solution to provide complete coverage of the leaf surfaces. Placed in a well-vented area to dry.

[2] = system: Bean aphid (Aphis fabae); test: Bean aphid test on nasturtium seedlings (BA H40); design: key to BA H40 observation (feeding): R = Reduced feeding, regardless of cause (e.g., repellent effects); settings: 3 days; for BA H40 activity rating: mixed life stages
Procedure: as §1
Test Procedures for Bean aphid (Aphis fabae) (BA—Foliar):
Transferred approximately 5-day-old nasturtium seedlings (at the state of unfolded cotyledons), grown in Metro mix in propagation trays in the greenhouse, to Rootcubes, which were held in propagation trays Pressed the seed (still attached to the seedling) in the central depression of each cube. Held transferred seedlings for approximately 3 days in the greenhouse for expansion of the cotyledons.
In the insecticide screening laboratory, infested the seedlings. Positioned a paint roller screen above the 72 plants in each tray so that the screen was in contact with the foliage of the test plants. Spread approximately 50 infested nasturtium stems and leaves (from approximately 2-3 peat pots of insectary-reared aphids) an each screen. Kept the trag with the seedlings sitting in about ½ in. water overnight in the laboratory (leaving lights in lab on). Migration of aphids to the test plants occurred by morning. Removed the screen with drying leaves from the trays of test plants and discarded the leaves.
Prepared test solutions as needed in 50:50 acetone:water and 100 ppm Kinetic® surfactant. Selected plants to dip that had approximately 2-30 aphids per plant. Dipped each plant into the test solution to provide complete coverage of the foliage, stem, protruding seed surface and surrounding cube surface. Kept treated plants in the fume hood to dry. For routine screening, used one plant/treatment.
Placed treated plants in bioassay trays, 1 plant/well. Added water to fill each well. This allowed the plants to be watered from the roots, not interfering with the foliar treatment, and reduced potential migration of aphids between treatments. Kept treated plants at room temperature an the insecticide screening lab bench with continuous fluorescent light for 3 days.

[3] = system: Green peach aphid (Myzus persicae); test: Green peach aphid leaf dip test (GPA H52); settings: pepper, mixed life stages, five days
Procedure: as §1
Test Procedures for GPA—Green peach aphid (Myzus persicae)—Leaf Dip:
Selected pepper plants (one plant per pot) in the second leaf-pair stage, with the 1st leaf-pair measuring 6-10 cm from tip to tip. Removed the cotyledons. Placed infested pepper leaves or leaf sections on top of the test plants, allowing for approximately 60 laboratory-reared aphids per plant. Allowed the aphids to transfer from the leaf sections to the test plants (overnight) to reach a density of at least 40 aphids per plant, then removed the leaf sections.
Prepared test solutions as needed in 50:50 acetone:water and 100 ppm Kinetic® surfactant (STP#1A). Dipped the leaves of the infested plant into the test solution to provide complete coverage of the leaf surfaces. Placed in a well-vented area to dry. Test plants were maintained under fluorescent light (24 hour photoperiod) at 25±2° C. and 20-40% relative humidity for five days, at which time aphid survival was determined (see Table 1a).

[4] = system: Two-spotted spider mite (Tetranychus uriticae), P-resistant origin; test: Two-spotted spider mite leaf dip test (TSMR A42); settings: 300 ppm, lima bean, mixed life stages, five days
Procedure: as §1
Test Procedures for Two-spotted spider mite (Tetranychus uriticae) TSM—leaf-dip:
Selected lima bean plants (one plant per pot), grown to the first leaf pair with a span of 7-12 cm. Placed sections of a heavily infested leaf (laboratory reared mites) an the test plants. Allowed the mites to transfer from the leaf sections to the test plants (at least two houss) to provide at least 100 mites per leaf. Removed the leaf sections from the test plants prior to dipping.
Prepared test solutions as needed in 50:50 acetone:water and 100 ppm Kinetic® surfactant. Dipped the infested leaves of the intact plant into the test solution to provide complete coverage of the leaf surfaces. Placed in a well-vented area to dry. […]

| SMILES | CA H43 activity rating ([1]; 10 ppm) | CA H43 activity rating ([1]; 100 ppm) | CA H43 activity rating ([1]; 300 ppm) | BA H40 activity rating ([2]; 10 ppm) | BA H40 observation (feeding) ([2]; 100 ppm) | BA H40 activity rating ([2]; 100 ppm) | BA H40 observation (feeding) ([2]; 300 ppm) | BA H40 activity rating ([2]; 300 ppm) | GPA H52 activity rating ([3]; 10 ppm) | GPA H52 activity rating ([3]; 100 ppm) | GPA H52 activity rating ([3]; 300 ppm) | TSMR A42 activity rating [4] |
| --- | --- | --- | --- | --- | --- | --- | --- | --- | --- | --- | --- | --- |
| N#CCNS(=O)(=O)c1cnccc1C(F)(F)F [Compound 2, 4-Trifluoromethyl-pyridine-3-sulfonic acid cyanomethyl-amide] | 0 (0 = 0-25% reduction of live population vs. check) | 8 (8 = 86-99% reduction of live population vs. check) | 9 (9 = 100% reduction of live population vs. check) | 0^ (0 = 0-25% reduction of live population vs. check) | R | 0 (0 = 0-25% reduction of live population vs. check) | R | 7 (7 = 75-85% reduction of live population vs. check) | 0 (0 = 0-25% reduction of live population vs. check) | 3 (3 = 25-49% reduction of live population vs. check) | 8 (8 = 86-99% reduction of live population vs. check) and 5 (5 = 50-74% reduction of live population vs. check) | 0 (0 = 0-25% reduction of live population vs. check) |
| C#CCNS(=O)(=O)c1cnccc1C(F)(F)F [Compound 1, 4-Trifluoromethyl-pyridine-3-sulfonic acid prop-2-ynylamide] | 0 (0 = 0-25% reduction of live population vs. check) | 8 (8 = 86-99% reduction of live population vs. check) | 8 (8 = 86-99% reduction of live population vs. check) | 0^ (0 = 0-25% reduction of live population vs. check) | R | 5 (5 = 50-74% reduction of live population vs. check) | R | 8 (8 = 86-99% reduction of live population vs. check) | 0 (0 = 0-25% reduction of live population vs. check) | 7 (7 = 75-85% reduction of live population vs. check) | 8 (8 = 86-99% reduction of live population vs. check) | 0 (0 = 0-25% reduction of live population vs. check) |
